From patent US20060281763A1, “Carboxamide inhibitors of TGFbeta” (priority 2005, published 2006)

The molecules below were run against T1, TGFβ R1 (Homo sapiens, UniProt P36897) (assay: TGFβ R1 autophosphorylation protocol (33P-ATP, phosphocellulose filter plate)). Conditions: 10 uM ATP, 170 nM TGFβ R1, 20 minutes at room temperature, read-out: IC50 for Kinase Inhibition.
T1 sequence (P36897 34-503): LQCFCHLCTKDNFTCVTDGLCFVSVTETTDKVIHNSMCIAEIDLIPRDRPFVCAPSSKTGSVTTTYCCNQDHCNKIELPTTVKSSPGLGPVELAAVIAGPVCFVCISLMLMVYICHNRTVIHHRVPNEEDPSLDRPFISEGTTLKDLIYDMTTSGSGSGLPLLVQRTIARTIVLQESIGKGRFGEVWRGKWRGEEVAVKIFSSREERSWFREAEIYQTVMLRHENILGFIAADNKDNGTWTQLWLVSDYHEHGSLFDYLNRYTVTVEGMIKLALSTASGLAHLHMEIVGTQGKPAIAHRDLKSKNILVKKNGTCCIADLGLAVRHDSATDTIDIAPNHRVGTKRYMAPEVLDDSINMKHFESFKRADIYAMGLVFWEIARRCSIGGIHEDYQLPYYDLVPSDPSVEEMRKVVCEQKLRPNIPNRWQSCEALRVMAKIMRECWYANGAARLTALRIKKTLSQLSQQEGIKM
Format: biochemical
Method: The compounds of the invention were tested for their ability to inhibit TGFβ by a TGFβ R^1 autophosphorylation protocol. This was conducted as follows: Compound dilutions and reagents were prepared fresh daily. Compounds were diluted from DMSO stock solutions to 2 times the desired assay concentration, keeping final DMSO concentration in the assay less than or equal to 1%. TGFβ R1 was diluted to 4 times the desired assay concentration in buffer+DTT. ATP was diluted into 4× reaction buffer, and gamma-^33P-ATP was added at 60 uCi/mL.
The assay was performed by adding 10 ul of the enzyme to 20 ul of the compound solution. The reaction was initiated by the addition of 10 ul of ATP mix. Final assay conditions included 10 uM ATP, 170 nM TGFβ R1, and […] in 20 mM MOPS, pH7. The reactions were incubated at room temperature for 20 minutes. The reactions were stopped by transferring 23 ul of reaction mixture onto a phosphocellulose 96-well filter plate, which had been pre-wetted with 15 ul of 0.25M H3PO4 per well. After 5 minutes, the wells were washed 4× with 75 mM H3PO4 and once with 95% ethanol. The plate was dried, scintillation cocktail was added to each well, and the wells were counted in a Packard TopCount microplate scintillation counter.

Row | Compound | IC50 [nM]
1 | NC(=O)c1cnccc1Nc1nc(-c2cc(Cl)ccc2F)ncc1I [Compound 78, 4-[2-(5-Chloro-2-fluoro-phenyl)-5-iodo-pyrimidin-4-ylamino]-nicotinamide] | 10
2 | COc1ccc(NC(=O)NCCNC(=O)c2cnccc2Nc2nc(-c3cc(Cl)ccc3F)ncc2OC)cc1 [Compound 79, 4-[2-(5-Chloro-2-fluoro-phenyl)-5-methoxy-pyrimidin-4-ylamino]-N-{2-[3-(4-methoxy-phenyl)-ureido]-ethyl}-nicotinamide] | 350
3 | COc1cnc(-c2cc(Cl)ccc2F)nc1Nc1ccncc1C(=O)NCCNC(=O)NC(C)C [Compound 80, 4-[2-(5-Chloro-2-fluoro-phenyl)-5-methoxy-pyrimidin-4-ylamino]-N-[2-(3-isopropyl-ureido)-ethyl]-nicotinamide] | 570
4 | COc1cnc(-c2cc(Cl)ccc2F)nc1Nc1ccncc1C(=O)NCCCN1CCCC1C(=O)N(C)C (stereo not drawn) [Compound 81, 4-[2-(5-Chloro-2-fluoro-phenyl)-5-methoxy-pyrimidin-4-ylamino]-N-[3-(2-dimethylcarbamoyl-pyrrolidin-1-yl)-propyl]-nicotinamide] | 120
5 | CC(C)c1cnc(-c2cc(Cl)ccc2F)nc1Nc1ccncc1C(=O)N[C@H]1CCC[C@@H]1O [Compound 83, 4-[2-(5-Chloro-2-fluoro-phenyl)-5-isopropyl-pyrimidin-4-ylamino)-N-(2-hydroxy-cyclopentyl)-nicotinamide] | 230
6 | CC(C)c1cnc(-c2cc(Cl)ccc2F)nc1Nc1ccncc1C(=O)N[C@H](CO)[C@@H](C)O [Compound 84, 4-[2-(5-Chloro-2-fluoro-phenyl)-5-isopropyl-pyrimidin-4-ylamino]-N-(2-hydroxy-1-hydroxymethyl-propyl)-nicotinamide] | 1730
7 | COc1cnc(-c2cc(Cl)ccc2F)nc1Nc1ccncc1C(=O)NC1CN(C(=O)OC(C)(C)C)C1 [Compound 86, 3-({4-[2-(5-Chloro-2-fluoro-phenyl)-5-methoxy-pyrimidin-4-ylamino]-pyridine-3-carbonyl}-amino)-azetidine-1-carboxylic acid tert-butyl ester] | 310
8 | COC(=O)[C@H]1C[C@@H](NC(=O)c2cnccc2Nc2nc(-c3cc(Cl)ccc3F)ncc2OC)CN1 [Compound 89, 4-({4-[2-(5-Chloro-2-fluoro-phenyl)-5-methoxy-pyrimidin-4-ylamino]-pyridine-3-carbonyl}-amino)-pyrrolidine-2-carboxylic acid methyl ester] | 190
9 | NC(=O)c1cnccc1Nc1nc(-c2cc(Cl)ccc2F)ncc1Cl [Compound 91, 4-[5-Chloro-2-(5-chloro-2-fluoro-phenyl)-pyrimidin-4-ylamino]-nicotinamide] | 200
10 | CNC(=O)c1cnccc1Nc1nc(-c2cc(Cl)ccc2F)ncc1Br [Compound 93, 4-[5-Bromo-2-(5-chloro-2-fluoro-phenyl)-pyrimidin-4-ylamino]-N-methyl-nicotinamide] | 30
11 | COc1cnc(-c2cc(Cl)ccc2F)nc1Nc1ccncc1C(=O)NCCCNC(C)=O [Compound 94, N-(3-Acetylamino-propyl)-4-[2-(5-chloro-2-fluoro-phenyl)-5-methoxy-pyrimidin-4-ylamino]-nicotinamide] | 1340
12 | COc1cnc(-c2cc(Cl)ccc2F)nc1Nc1ccncc1C(=O)NCCCNC(=O)C(C)C [Compound 95, 4-[2-(5-Chloro-2-fluoro-phenyl)-5-methoxy-pyrimidin-4-ylamino]-N-(3-isobutylylamino-propyl)-nicotinamide] | 170
13 | COc1cnc(-c2cc(Cl)ccc2F)nc1Nc1ccncc1C(=O)NCCCNCCC1O[C@H](COC(C)=O)[C@@H](OC(C)=O)[C@H](OC(C)=O)[C@H]1OC(C)=O (stereo partly drawn) [Compound 97, Acetic acid 3,4,5-triacetoxy-6-{2-[3-({4-[2-(5-chloro-2-fluoro-phenyl)-5-methoxy-pyrimidin-4-ylamino]-pyridine-3-carbonyl}-amino)-propylamino]-ethyl}-tetrahydro-pyran-2-ylmethyl ester] | 90
14 | COc1cnc(-c2cc(Cl)ccc2F)nc1Nc1ccncc1C(=O)NCCCNCC(F)(F)C(F)(F)F [Compound 101, 4-[2-(5-Chloro-2-fluoro-phenyl)-5-methoxy-pyrimidin-4-ylamino]-N-[3-(2,2,3,3,3-pentafluoro-propylamino)-propyl]-nicotinamide] | 140
15 | COc1cnc(-c2cc(Cl)ccc2F)nc1Nc1ccncc1C(=O)NCCNCC(F)(F)C(F)(F)F [Compound 102, 4-[2-(5-Chloro-2-fluoro-phenyl)-5-methoxy-pyrimidin-4-ylamino]-N-[2-(2,2,3,3,3-pentafluoro-propylamino)-ethyl]-nicotinamide] | 70
16 | COc1cnc(-c2cc(Cl)ccc2F)nc1Nc1ccncc1C(=O)NCCOCCO [Compound 104, 4-[2-(5-Chloro-2-fluoro-phenyl)-5-methoxy-pyrimidin-4-ylamino]-N-[2-(2-hydroxy-ethoxy)-ethyl]-nicotinamide] | 310
17 | COc1cnc(-c2cc(Cl)ccc2F)nc1Nc1ccncc1C(=O)NCC1CN(C(=O)OC(C)(C)C)C1 [Compound 105] | 240
18 | COc1cnc(-c2cc(Cl)ccc2F)nc1Nc1ccncc1C(=O)N[C@@H]1C[C@H](C(=O)N(C)C)N(C(=O)OC(C)(C)C)C1 [Compound 106, 4-({4-[2-(5-Chloro-2-fluoro-phenyl)-5-methoxy-pyrimidin-4-ylamino]-pyridine-3-carbonyl}-amino)-2-dimethyl carbamoyl-pyrrolidine-1-carboxylic acid tert-butyl ester] | 4810

Continued, values first:

Row | IC50 [nM] | Compound
19 | 310 | COc1cnc(-c2cc(Cl)ccc2F)nc1Nc1ccncc1C(=O)NC1CCN(C(=O)OC(C)(C)C)C1 (stereo not drawn) [Compound 82, 3-((4-[2-(5-Chloro-2-fluoro-phenyl)-5-methoxy-pyrimidin-4-ylamino]-pyridine-3-carbonyl)-amino)-pyrrolidine-1-carboxylic acid tert-butyl ester]
20 | 3960 | CC(C)c1cnc(-c2cc(Cl)ccc2F)nc1Nc1ccncc1C(=O)N[C@H](C(N)=O)[C@@H](C)O [Compound 85, N-(1-Carbamoyl-2-hydroxy-propyl)-4-[2-(5-chloro-2-fluoro-phenyl)-5-isopropyl-pyrimidin-4-ylamino]-nicotinamide]
21 | 50 | COc1cnc(-c2cc(Cl)ccc2F)nc1Nc1ccncc1C(=O)NC1CNC1 [Compound 87, N-Azetidin-3-yl-4-[2-(5-chloro-2-fluoro-phenyl)-5-methoxy-pyrimidin-4-ylamino]-nicotinamide]
22 | 14100 | COC(=O)[C@H]1C[C@@H](NC(=O)c2cnccc2Nc2nc(-c3cc(Cl)ccc3F)ncc2OC)CN1C(=O)OC(C)(C)C [Compound 88, 4-({4-[2-(5-Chloro-2-fluoro-phenyl)-5-methoxy-pyrimidin-4-ylamino]-pyridine-3-carbonyl}-amino)-pyrrolidine-1,2-dicarboxylic acid 1-tert-butyl ester 2-methyl ester]
23 | 130 | O=C(NC1CC1)c1cnccc1Nc1nc(-c2cc(Cl)ccc2F)ncc1Cl [Compound 92, 4-[5-Chloro-2-(5-chloro-2-fluoro-phenyl)-pyrimidin-4-ylamino]-N-cyclopropyl-nicotinamide]
24 | 70 | COC[C@H]1OC(CCNCCCNC(=O)c2cnccc2Nc2nc(-c3cc(Cl)ccc3F)ncc2OC)[C@@H](OC)[C@@H](OC)[C@@H]1OC (stereo partly drawn) [Compound 96, 4-[2-(5-Chloro-2-fluoro-phenyl)-5-methoxy-pyrimidin-4-ylamino]-N-(3-[2-(3,4,5-trimethoxy-6-methoxymethyl-tetrahydro-pyran-2-yl)-ethylamino]-propyl)-nicotinamide]
25 | 610 | COc1cnc(-c2cc(Cl)ccc2F)nc1Nc1ccncc1C(=O)NCCCNCCC1O[C@H](COCc2ccccc2)[C@@H](OCc2ccccc2)[C@H](OCc2ccccc2)[C@H]1OCc1ccccc1 (stereo partly drawn) [Compound 99, 4-[2-(5-Chloro-2-fluoro-phenyl)-5-methoxy-pyrimidin-4-ylamino]-N-{3-[2-(3,4,5-tris-benzyloxy-6-benzyloxymethyl-tetrahydro-pyran-2-yl)-ethylamino]-propyl}-nicotinamide]
26 | 30 | COc1cnc(-c2cc(Cl)ccc2F)nc1Nc1ccncc1C(=O)NCCCN [Compound 100, N-(3-Amino-propyl)-4-[2-(5-chloro-2-fluoro-phenyl)-5-methoxy-pyrimidin-4-ylamino]-nicotinamide]
27 | 130 | COc1cnc(-c2cc(Cl)ccc2F)nc1Nc1ccncc1C(=O)NCCNCC(F)(F)F [Compound 103, 4-[2-(5-Chloro-2-fluoro-phenyl)-5-methoxy-pyrimidin-4-ylamino]-N-[2-(2,2,2-trifluoro-ethylamino)-ethyl]-nicotinamide]
